Assay results published in ChEMBL document CHEMBL3044790, “Evaluation of antiasthmatic activity of 7,8,9,10-tetrahydroazepino[2,1-b]quinazolin-12(6H)-one in combination with ambroxol in Guinea pigs” (2012).
Calls of active or inactive are those of the source. The calls are words filed in the database; no cut-off is given here.

Experiments:
[1] = test system: Cavia porcellus; experiment: (§1) Antiasthmatic activity in Cavia porcellus Hartley (guinea pig) ovalbumin-induced hyperresponsive model assessed as decrease in nitrate/nitrite level in per gram of lung tissue at 20 mg/kg, ip qd administered for 7 days challenged 30 min post last dose on day 7 by griess assay (reference value: 195.55 +/- 8.34 umol/g); assay type: functional; settings: route intraperitoneal
[2] = test system: Cavia porcellus; experiment: Antiasthmatic activity in Cavia porcellus Hartley (guinea pig) ovalbumin-induced hyperresponsive model assessed as reduction in total lymphocyte count in BAL at 20 mg/kg, ip qd administered for 7 days challenged 30 min post last dose on day 7; assay type: functional, organism-based; parameters: dose 20 mg/kg
[3] = test system: Cavia porcellus; experiment: Antiasthmatic activity in Cavia porcellus Hartley (guinea pig) ovalbumin-induced hyperresponsive model assessed as cough latency at 10 mg/kg, ip qd administered for 7 days challenged 30 min post last dose on day 7 (reference value: 4.75 +/- 0.86 min); assay type: functional; settings: route intraperitoneal
[4] = test system: Cavia porcellus; experiment: Antiasthmatic activity in Cavia porcellus Hartley (guinea pig) ovalbumin-induced hyperresponsive model assessed as decrease in nitrate/nitrite level in BAL at 20 mg/kg, ip qd administered for 7 days challenged 30 min post last dose on day 7 by griess assay (reference value: 70.16 +/- 6.20 umol/ml); assay type: functional; settings: route intraperitoneal
[5] = test system: Cavia porcellus; experiment: Antiasthmatic activity in Cavia porcellus Hartley (guinea pig) ovalbumin-induced hyperresponsive model assessed as reduction in eosinophil count in BAL at 20 mg/kg, ip qd administered for 7 days challenged 30 min post last dose on day 7; assay type: functional, organism-based; parameters: dose 20 mg/kg
[6] = test system: Bronchus smooth muscle; experiment: Inhibition of ovalbumin-induced constriction of Cavia porcellus (guinea pig) bronchial smooth muscle; assay type: functional
[7] = test system: Cavia porcellus; experiment: Antiasthmatic activity in Cavia porcellus Hartley (guinea pig) ovalbumin-induced hyperresponsive model assessed as increase in GSH level in per gram of lung tissue at 20 mg/kg, ip qd administered for 7 days challenged 30 min post last dose on day 7 (reference value: 15.175 +/- 1.809 umol/g); assay type: functional; settings: route intraperitoneal
[8] = test system: Cavia porcellus; experiment: Antiasthmatic activity in Cavia porcellus Hartley (guinea pig) ovalbumin-induced hyperresponsive model assessed as reduction in TBARS level in per gram of lung tissue at 20 mg/kg, ip qd administered for 7 days challenged 30 min post last dose on day 7 (reference value: 0.291 +/- 0.039 nmol/g); assay type: functional; settings: route intraperitoneal
[9] = test system: Cavia porcellus; experiment: Antiasthmatic activity in Cavia porcellus Hartley (guinea pig) ovalbumin-induced hyperresponsive model assessed as increase in GSH level in BAL at 20 mg/kg, ip qd administered for 7 days challenged 30 min post last dose on day 7 (reference value: 28.95 +/- 3.66 umol/ml); assay type: functional; settings: route intraperitoneal
[10] = test system: Cavia porcellus; experiment: Antiasthmatic activity in Cavia porcellus Hartley (guinea pig) ovalbumin-induced hyperresponsive model assessed as cough latency at 20 mg/kg, ip qd administered for 7 days challenged 30 min post last dose on day 7 (reference value: 4.75 +/- 0.86 min); assay type: functional; settings: route intraperitoneal
[11] = test system: Cavia porcellus; experiment: Antiasthmatic activity in Cavia porcellus Hartley (guinea pig) ovalbumin-induced hyperresponsive model assessed as reduction in TBARS level in BAL at 20 mg/kg, ip qd administered for 7 days challenged 30 min post last dose on day 7 (reference value: 0.471 +/- 0.08 nmol/ml); assay type: functional; settings: route intraperitoneal
[12] = test system: Cavia porcellus; experiment: Antiasthmatic activity in Cavia porcellus Hartley (guinea pig) ovalbumin-induced hyperresponsive model assessed as cough latency at 50 mg/kg, ip qd administered for 7 days challenged 30 min post last dose on day 7 (reference value: 4.75 +/- 0.86 min); assay type: functional; settings: route intraperitoneal
[13] = test system: Cavia porcellus; experiment: Antiasthmatic activity in Cavia porcellus Hartley (guinea pig) ovalbumin-induced hyperresponsive model assessed as reduction in eosinophil count in BAL at 50 mg/kg, ip qd administered for 7 days challenged 30 min post last dose on day 7; assay type: functional, organism-based; parameters: dose 50 mg/kg
[14] = test system: Cavia porcellus; experiment: Antiasthmatic activity in Cavia porcellus Hartley (guinea pig) ovalbumin-induced hyperresponsive model assessed as increase in GSH level in per gram of lung tissue at 100 mg/kg, ip qd administered for 7 days challenged 30 min post last dose on day 7 (reference value: 15.175 +/- 1.809 umol/g); assay type: functional; settings: route intraperitoneal
[15] = test system: Cavia porcellus; experiment: Antiasthmatic activity in Cavia porcellus Hartley (guinea pig) ovalbumin-induced hyperresponsive model assessed as reduction in TBARS level in BAL at 100 mg/kg, ip qd administered for 7 days challenged 30 min post last dose on day 7 (reference value: 0.471 +/- 0.08 nmol/ml); assay type: functional; settings: route intraperitoneal
[16] = test system: Cavia porcellus; experiment: Antiasthmatic activity in Cavia porcellus Hartley (guinea pig) ovalbumin-induced hyperresponsive model assessed as reduction in eosinophil count in BAL at 100 mg/kg, ip qd administered for 7 days challenged 30 min post last dose on day 7; assay type: functional, organism-based; parameters: dose 100 mg/kg
[17] = test system: Cavia porcellus; experiment: Antiasthmatic activity in Cavia porcellus Hartley (guinea pig) ovalbumin-induced hyperresponsive model assessed as reduction in total lymphocyte count in BAL at 50 mg/kg, ip qd administered for 7 days challenged 30 min post last dose on day 7; assay type: functional, organism-based; parameters: dose 50 mg/kg
[18] = test system: Cavia porcellus; experiment: Antiasthmatic activity in Cavia porcellus Hartley (guinea pig) ovalbumin-induced hyperresponsive model assessed as reduction in TBARS level in per gram of lung tissue at 100 mg/kg, ip qd administered for 7 days challenged 30 min post last dose on day 7 (reference value: 0.291 +/- 0.039 nmol/g); assay type: functional; settings: route intraperitoneal
[19] = test system: Cavia porcellus; experiment: as §1, with “100” for “20”; assay type: functional; settings: route intraperitoneal
[20] = test system: Cavia porcellus; experiment: Antiasthmatic activity in Cavia porcellus Hartley (guinea pig) ovalbumin-induced hyperresponsive model assessed as increase in GSH level in BAL at 100 mg/kg, ip qd administered for 7 days challenged 30 min post last dose on day 7 (reference value: 28.95 +/- 3.66 umol/ml); assay type: functional; settings: route intraperitoneal
[21] = test system: Cavia porcellus; experiment: Antiasthmatic activity in Cavia porcellus Hartley (guinea pig) ovalbumin-induced hyperresponsive model assessed as decrease in nitrate/nitrite level in BAL at 100 mg/kg, ip qd administered for 7 days challenged 30 min post last dose on day 7 by griess assay (reference value: 70.16 +/- 6.20 umol/ml); assay type: functional; settings: route intraperitoneal
[22] = test system: Cavia porcellus; experiment: Antiasthmatic activity in Cavia porcellus Hartley (guinea pig) ovalbumin-induced hyperresponsive model assessed as cough latency at 100 mg/kg, ip qd administered for 7 days challenged 30 min post last dose on day 7 (reference value: 4.75 +/- 0.86 min); assay type: functional; settings: route intraperitoneal
[23] = test system: Cavia porcellus; experiment: Antiasthmatic activity in Cavia porcellus Hartley (guinea pig) ovalbumin-induced hyperresponsive model assessed as reduction in total lymphocyte count in BAL at 100 mg/kg, ip qd administered for 7 days challenged 30 min post last dose on day 7; assay type: functional, organism-based; parameters: dose 100 mg/kg

`O=c1c2ccccc2nc2n1CCCCC2` was tested, and the Activity [1] was 81.777 µmol, the Activity [2] was “Active” and the Time [3] was 15.67 min. For the same compound, the Activity [4] was 48.945 µmol/mL, the Activity [5] was “Active” and the inhibition [6] was “Dose-dependent effect”. It also gave an Activity [7] of 66.67 µmol, an Activity [8] of 0.094 nmol and an Activity [9] of 71.67 µmol/mL. It also gave a Time [10] of 22.32 min and an Activity [11] of 0.199 nmol/mL.
For `Nc1c(Br)cc(Br)cc1CN[C@H]1CC[C@H](O)CC1` [AMBROXOL], the Time [12] was 5.627 min, the Activity [13] was “Active” and the Activity [14] was 50.28 µmol. The Activity [15] was 0.325 nmol/mL, the Activity [16] was “Active” and the Activity [17] was “Active”. It also gave an Activity [18] of 0.146 nmol, an Activity [19] of 134.67 µmol and an Activity [20] of 56.83 µmol/mL. The Activity [21] was 49.075 µmol/mL, the Time [22] was 13.17 min and the Activity [23] was “Active”.
